The numbers were not newly measured in patent publication US11007501B2, “Reduced permeability microcapsules” (Trucapsol LLC, priority 2018, dated 2021), which cites them from elsewhere.

On to Nonalactone, for which the “Octanol/water Partition Coefficient (logP)” value is recorded as 1.3.
As for Violiff, the “Octanol/water Partition Coefficient (logP)” value was 2.11.
